Data reported in publication PMC11597089, “Kratom Alkaloids: A Blood–Brain Barrier Specific Membrane Permeability Assay-Guided Isolation and Cyclodextrin Complexation Study” (Molecules, 2024).

Experiments:
[1] = ACE complex stability, β-CD; type: physicochemical; details: 30 mM phosphate buffer pH 7.4, 25 °C, 15 kV, 215 nm
Experimental: (§1) To investigate the CD complexation behavior of the four kratom alkaloids, we aimed to develop an ACE method for a systematic comparative study. […] To ensure sufficient buffer capacity and to avoid excessive current and Joule heat generation, the buffer concentration was set to 30 mM, and the applied voltage was 15 kV.
(§2) The ACE experiments were performed by using Agilent 7100 and HP^3DCE instruments (Agilent Technologies, Waldbronn, Germany). Untreated fused silica capillaries (total length of 48.5 cm, effective length of 40 cm, inner diameter of 50 μm) were purchased from Agilent Technologies. The new capillaries were conditioned with a 1 M NaOH wash for 1 h, followed by a 30 min wash each with 0.1 M NaOH and purified water. Prior to all runs, the capillary was preconditioned by rinsing with background electrolyte for 3 min. During the measurements, 30 mM phosphate buffer at pH 7.4 (30 mM Na2HPO4-NaOH) was used. The background electrolyte contained CDs at various concentrations. Stock solutions of the studied kratom alkaloids (mitragynine, paynantheine, speciogynine, speciociliatine) were prepared separately in methanol (1 mg/mL), and, right before the measurements, appropriate dilutions with purified water were used to prepare the sample solutions, applying 0.1% DMSO as the electroosmotic flow (EOF) marker. The samples were injected hydrodynamically at 40 mbar for 3 s. The positive polarity voltage was set to 15 kV, and the capillary was set to 25 °C. The electropherograms were recorded at four wavelengths (200 nm, 210 nm, 215 nm, and 220 nm), and the data were evaluated at 215 nm. In each case, three parallel measurements were performed. The measurements were evaluated using Origin and CEval software (v. 0.6i3).
(§3) In order to determine the complex stability constants that characterized the strength of the complexes, the first step was to determine the effective mobility of the analyte at specific CD concentrations. Triangular peaks caused by electromigration dispersion are often observed in ACE measurements.
Assuming a 1:1 complexation ratio and that the equilibrium CD concentration is almost equal to the total CD concentration, a relationship between the effective mobility relative to the EOF and the complex stability constant can be described by Function (4) (4) μeff=μA+μACDKstabCD/1+KstabCD where µeff is the effective mobility of the analyte, µA and µACD are the free and complexed analyte mobilities, [CD] is the concentration of the selector, and Kstab is the complex stability constant.
In order to calculate the exact, apparent, averaged complex stability constant values, viscosity correction and ionic strength correction were used.

[2] = ACE complex stability, HS-β-CD; type: physicochemical; details: heptakis-(6-O-sulfo)-β-CD, 30 mM phosphate buffer pH 7.4, 25 °C
Experimental: as §1, §2
as §3, with “measurements. […]” for “measurements.”

[3] = PAMPA-BBB permeability assay; type: in vitro ADME, porcine; details: for in vitro BBB permeability: PAMPA-BBB, in words; for Papp at 4 h, 100 µM: pig, PAMPA, read-out: logPe PAMPA-BBB (n = 9) (converted)
Experimental: Kratom extracts were tested for the membrane permeability of their constituents in a PAMPA-BBB assay. […] The blood–brain barrier-specific assay was tested and optimized for natural products by Könczöl et al.; this PAMPA-BBB assay was therefore chosen to determine the BBB permeability of the kratom constituents. […] It should be noted, however, that among the minor components that were not the focus of this study, there may be BBB+ compounds with significant biological activity.
All four isolated kratom alkaloids were also tested in the PAMPA-BBB model. As it can be seen in Table 1, all the investigated compounds had logPe values of between −4.42 and −4.77, which were greater than −6.0; according to Könczöl et al., this value effectively discriminates between compounds with good (BBB+) and poor (BBB−) blood–brain barrier permeability.
PAMPA-BBB was used to determine the effective permeability (Pe) for some extracts and the isolated compounds. Stock solutions (10 mM in DMSO) were diluted with the buffer (pH 7.4) to obtain the donor solutions (composition: 594.0 μL buffer + 6.0 μL stock solution). The buffer was prepared as follows: one PBS (phosphate-buffered saline, pH 7.4; Sigma Aldrich, Budapest, Hungary) tablet dissolved in 200.0 mL distilled water. Donor solutions were filtered through Phenex-RC 15 mm, 0.2 μm syringe filters (Gen-Lab Ltd., Budapest, Hungary).
For PAMPA-BBB, 5 μL of porcine polar brain lipid extract (PBLE) solution (16.0 mg of PBLE + 8.0 mg of cholesterol dissolved in 600.0 μL of n-dodecane) was applied to each well of 96-well polycarbonate-based filter donor plates (top plate) (Multiscreen™-IP, MAIPN4510, pore size 0.45 μm; Merck). The 96-well PTFE acceptor plates (bottom plates) (Multiscreen Acceptor Plate, MSSACCEPTOR; Merck) were filled with 300.0 μL of buffer solution (0.01 M PBS buffer, pH 7.4). The donor plate was placed upon the acceptor plate, and both plates were incubated together at 37 °C for 4 h in a Heidolph Titramax 1000 Vibrating platform shaker (Heidolph, Schwabach, Germany).
After incubation, sandwich plates were separated, and the concentrations of each compound in the starting donor solution and in the acceptor and donor wells were determined in triplicate by the chromatographic peak areas derived from the UHPLC-UV method described above. The UV spectra and chromatograms were recorded at 200–400 nm, and the chromatograms acquired at the UV absorption maxima of each compound were used for data evaluation. The effective permeability and the membrane retention in PAMPA-BBB were calculated by Equations (1) and (2), respectively:(1) Pe=−2.303/A(t−τSS)·(VA·VD/VA+VD)·lg[1−(VA+VD/(1−MR)·VD)×(CA(t)/CD(0))] where Pe is the effective permeability coefficient (cm/s), A is the filter area (0.24 cm^2), VD and VA are the volumes in the donor (0.15 cm^3) and acceptor phases (0.30 cm^3), t is the incubation time (s), τSS is the time (s) to reach the steady state (240 s), CD(t) is the concentration (mol/cm^3) of the compound in the donor phase at time t, CD(0) is the concentration (mol/cm^3) of the compound in the donor phase at time 0, and MR is the estimated membrane retention factor (the estimated mole fraction of solute lost to the membrane), defined as (2) MR=1−CD(t)/CD(0)−VA/VDCA(t)/CD(0)
All experiments were performed in triplicate on three consecutive days (n = 9); caffeine standard was used as the positive control, with rutin as the negative control.

[4] = ACE complex stability, HP-β-CD; type: physicochemical; details: hydroxypropylated-β-CD DS~4.5, 30 mM phosphate buffer pH 7.4, 25 °C
Experimental: as §1, §2
as §3, with “measurements. […]” for “measurements.”

[5] = ACE complex stability, SP-β-CD; type: physicochemical; details: sulfopropylated-β-CD DS~2, 30 mM phosphate buffer pH 7.4, 25 °C
Experimental: as §1
(§4) The ACE experiments were performed by using Agilent 7100 and HP^3DCE instruments (Agilent Technologies, Waldbronn, Germany). Untreated fused silica capillaries (total length of 48.5 cm, effective length of 40 cm, inner diameter of 50 μm) were purchased from Agilent Technologies. The new capillaries were conditioned with a 1 M NaOH wash for 1 h, followed by a 30 min wash each with 0.1 M NaOH and purified water. Prior to all runs, the capillary was preconditioned by rinsing with background electrolyte for 3 min. During the measurements, 30 mM phosphate buffer at pH 7.4 (30 mM Na2HPO4-NaOH) was used. The background electrolyte contained CDs at various concentrations. […] The electropherograms were recorded at four wavelengths (200 nm, 210 nm, 215 nm, and 220 nm), and the data were evaluated at 215 nm. […] The measurements were evaluated using Origin and CEval software (v. 0.6i3). […]

[6] = ACE complex stability, Sugammadex; type: physicochemical; details: octakis(6-deoxy-6-(2-carboxyethyl)thio)-γ-CD, 30 mM phosphate buffer pH 7.4, 25 °C
Experimental: as §1, §4

[7] = pH 7.4, 37 °C, 4 h, n = 9, Pe in cm/s

| Molecule | complex stability constant (Kstab) with β-CD [1] | complex stability constant (Kstab) with HS-β-CD [2] | in vitro BBB permeability [3] | Papp at 4 h, 100 µM [3, 7] | complex stability constant (Kstab) with HP-β-CD [4] | complex stability constant (Kstab) with SP-β-CD [5] | complex stability constant (Kstab) with Sugammadex [6] | logPe PAMPA-BBB (n = 9) [3, 7] |
| --- | --- | --- | --- | --- | --- | --- | --- | --- |
| C=C[C@H]1CN2CCc3c([nH]c4cccc(OC)c34)[C@@H]2C[C@@H]1/C(=C\OC)C(=O)OC [Paynantheine, paynantheine] | 145 ± 15 M⁻¹ | 575 ± 35 M⁻¹ | excellent | 24.5 ×10⁻⁶ cm/s | 75 ± 5 M⁻¹ | 335 ± 35 M⁻¹ | – | – |
| CC[C@@H]1CN2CCc3c([nH]c4cccc(OC)c34)[C@H]2C[C@@H]1/C(=C\OC)C(=O)OC [Speciociliatine, speciociliatine] | 35 ± 3 M⁻¹ | 850 ± 30 M⁻¹ | excellent | 26.3 ×10⁻⁶ cm/s | 30 ± 3 M⁻¹ | – | 700 ± 45 M⁻¹ | – |
| CC[C@H]1CN2CCc3c([nH]c4cccc(OC)c34)[C@@H]2C[C@@H]1/C(=C\OC)C(=O)OC [Speciogynine, speciogynine] | 65 ± 9 M⁻¹ | 645 ± 30 M⁻¹ | excellent | 17 ×10⁻⁶ cm/s | – | – | – | – |
| mitragynine | 145 ± 20 M⁻¹ | – | excellent | – | 35 ± 2 M⁻¹ | 210 ± 25 M⁻¹ | 2050 M⁻¹ | −4.42 ± 0.61 |
